Measurements reported in patent publication US8987193B2, “Nisin derivatives and the use thereof” (University College Cork—National University of Ireland, Cork, priority 2008, dated 2015).
Ends that are not written are not given here.

system: C. sporogenes CBC5; test: Deferred antagonism assay; format: cell-based, Clostridium sporogenes; parameters: key: + = Enhanced bioactivity relative to control; − = Bioactivity equal to or less than control; NA = no activity evident; details: XX and XXX hinge mutant producers

Substance	bioactivity relative to a nisin A-producing control
NisinA GLA (ITSISLCTPGCKTGALMGCGLATATCHCSIHVSK; cysteine pairing not given here; also: lantibiotic nisin-A; UniProt P13068 24-57, looked up, variant N20G M21L K22A) [nisin A hinge variant GLA (i.e. N20G, M21L, K22A)]	−
NisinA GVK	−
NisinA HLT (ITSISLCTPGCKTGALMGCHLTTATCHCSIHVSK; cysteine pairing not given here; also: lantibiotic nisin-A; UniProt P13068 24-57, looked up, variant N20H M21L K22T) [nisin A hinge variant HLT (i.e. N20H, M21L, K22T)]	−
NisinA PAA	−
NisinA PAK	−
NisinA PAL (ITSISLCTPGCKTGALMGCPALTATCHCSIHVSK; not fully specified (bridges); also: lantibiotic nisin-A: lanthionine rings and dehydrated residues, places not given here; UniProt P13068 24-57, looked up, variant N20P M21A K22L) [nisin A hinge variant PAL (i.e. N20P, M21A, K22L)]	−
NisinA PAT (ITSISLCTPGCKTGALMGCPATTATCHCSIHVSK; not fully specified (bridges); also: lantibiotic nisin-A: lanthionine rings and dehydrated residues, places not given here; UniProt P13068 24-57, looked up, variant N20P M21A K22T) [nisin A hinge variant PAT (i.e. N20P, M21A, K22T)]	−
NisinA PIA	−
NisinA PIM	−
NisinA PLA (ITSISLCTPGCKTGALMGCPLATATCHCSIHVSK; not fully specified (bridges); also: lantibiotic nisin-A: lanthionine rings and dehydrated residues, places not given here; UniProt P13068 24-57, looked up, variant N20P M21L K22A) [nisin A hinge variant PLA (i.e. N20P, M21L, K22A)]	−
NisinA PMC	−
NisinA PML	−
NisinA PMM	−
NisinA PMQ	−
NisinA PMT	−
NisinA PNR (ITSISLCTPGCKTGALMGCPNRTATCHCSIHVSK; not fully specified (bridges); also: lantibiotic nisin-A: lanthionine rings and dehydrated residues, places not given here; UniProt P13068 24-57, looked up, variant N20P M21N K22R) [nisin A hinge variant PNR (i.e. N20P, M21N, K22R)]	−
NisinA PSL	−
NisinA PTA	−
NisinA PTL (ITSISLCTPGCKTGALMGCPTLTATCHCSIHVSK; thioether (positions not given here); not fully specified (residues 2, 5, 33, bridges); also: lantibiotic nisin A, thioether rings and dehydro residues not given here; UniProt P13068 24-57, looked up, variant N20P M21T K22L) [nisin A hinge variant PTL (i.e. N20P, M21T, K22L)]	−
NisinA QLT (ITSISLCTPGCKTGALMGCQLTTATCHCSIHVSK; not fully specified (bridges); also: lantibiotic nisin-A: lanthionine rings and dehydrated residues, places not given here; UniProt P13068 24-57, looked up, variant N20Q M21L K22T) [nisin A hinge variant QLT (i.e. N20Q, M21L, K22T)]	−
NisinA SVA (ITSISLCTPGCKTGALMGCSVATATCHCSIHVSK; not fully specified (bridges); also: lantibiotic nisin-A: lanthionine rings and dehydrated residues, places not given here; UniProt P13068 24-57, looked up, variant N20S M21V K22A) [nisin A hinge variant SVA (i.e. N20S, M21V, K22A)]	−
